Legend:
[1] = system: CD59 mRNA; experiment: CD59 mRNA levels in unstimulated monocytes (Affymetrix gene array); format: cell-based, Human; conditions: CD14+ monocytes from healthy volunteers, after treatment with 10 nM or more, FIG. 2
Procedure: Human PBMCs were isolated from buffy coat from three healthy volunteers using ficoll gradient centrifugation. CD14+ monocytes were isolated from each batch of PBMCs using anti-CD14 microbeads (Miltenyi). Cells were treated with 0.1% DMSO or 4-amino-2-(2,6-dioxopiperidin-3-yl)isoindoline-1,3-dione (1 μM) 1 or lenalidomide (10 μM) for 30 minutes. Thereafter the cells were either left unstimulated or stimulated with 100 ng/ml LPS and incubated for 6 hours. After the incubation period the cells were lysed in TRI reagent (Sigma) for RNA isolation. The RNAs isolated using the TRI reagent RNA isolation protocol, were column cleaned (Qiagen) and the RNAs kept separate from the donors, were pooled for cDNA synthesis. Briefly, double-stranded cDNA will be synthesized using 2-5 μg of total RNA. Biotin-labeled cRNA will be synthesized using MessageAmp aRNA kit (Ambion), 15 μg of cRNA fragmented and hybridized to each Affymetrix human UI 33A array. The above procedures will be done twice for each RNA sample to obtain replicate biotin-labeled probes. Data analysis was performed using GeneSpring (Agilent).

[2] = system: CD59 mRNA; experiment: CD59 mRNA levels in PBMCs (Affymetrix gene array); format: cell-based, Human; conditions: PBMCs from healthy volunteers; 24, 48 and 72 hours; lenalidomide 10 μM, CC-4047 1 μM; FIG. 1
Procedure: Human PBMCs were isolated from buffy coat from healthy volunteers using ficoll gradient centrifugation. PBMCs were treated with 4-amino-2-(2,6-dioxopiperidin-3-yl)isoindoline-1,3-dione (1 μM) or lenalidomide (10 μM) or vehicle control (0.1% DMSO) for 24 hours, 48 hours, and 72 hours. Cells were harvested and RNA isolated as above. Methods for Affymetrix gene array analysis were as described above.

[3] = system: CD59 mRNA; experiment: CD59 mRNA levels in several in vitro cellular models in Affymetrix gene array experiments; format: cell-based; conditions: primary T cells, primary monocytes, NK cells, cultured PBMCs from normal and CLL patients, Namalwa Burkitt's lymphoma cell line
Description: In certain embodiments, the immunomodulatory compounds provided herein, such as 3-(4-amino-1-oxo-1,3-dihydro-isoindol-2-yl-piperidine-2,6-dione (lenalidomide), 4-amino-2-(2,6-dioxopiperidin-3-yl)isoindoline-1,3-dione or N-{[2-(2,6-dioxo(3-piperidyl)-1,3-dioxoisoindolin-4-yl]methyl}cyclopropyl-carboxamide, induce increase in the mRNA levels of CD59 in several in vitro cellular models in Affymetrix gene array experiments (both primary cells and cell lines). In certain aspects, this increase is found in primary T cells, primary monocytes, NK cells, cultured PBMCs from normal and CLL patients, and the Namalwa Burkitt's lymphoma cell line.
Namalwa cells are cultured in RPM1 supplemented with 10% fetal bovine serum. Cells are treated with vehicle control (0.1% DMSO) or 4-amino-2-(2,6-dioxopiperidin-3-yl)isoindoline-1,3-dione (10 μM) or lenalidomide (10 μM) for 8 hours and 24 hours. Cells are harvested and RNA isolated as described above. Methods for Affymetrix gene array analysis are as described above.
PBMCs are isolated from whole blood from CLL patients (MD Anderson) using ficoll gradient centrifugation. Cells are treated with 4-amino-2-(2,6-dioxopiperidin-3-yl)isoindoline-1,3-dione (1 μM), lenalidomide (10 μM) or N-{[2-(2,6-dioxo(3-piperidyl)-1,3-dioxoisoindolin-4-yl]methyl}cyclopropyl-carboxamide (10 μM) for 24 and 48 hours. Samples from five CLL patients are analyzed individually. Cells are harvested and RNA isolated as described above. Methods for Affymetrix gene array analysis are as described above.

[4] = system: CD59 mRNA; experiment: CD59 mRNA levels in alpha-CD3/CD28 stimulated T cells (Affymetrix gene array); format: cell-based, Human; conditions: CD4+ T cells, anti-CD3/anti-CD28 stimulation; 3, 6, 12 and 24 hours; lenalidomide 10 μM, CC-4047 1 μM; FIG. 3
Procedure: Human PBMCs were isolated from buffy coat from four healthy volunteers using ficoll gradient centrifugation CD4+ T cells were isolated from each batch of PBMCs using anti-CD4 microbeads (Miltenyi). Cells were treated with 0.1% DMSO or 4-amino-2-(2,6-dioxopiperidin-3-yl)isoindoline-1,3-dione (1 μM) 1 or lenalidomide (10 μM) in the presence or absence of anti-CD3/anti-CD28 stimulation over a time course which included 3, 6, 12 and 24 hours of treatment. Cells were harvested at indicated times and RNA isolated as described above. Methods for Affymetrix gene array analysis were as described above.

Nc1cccc2c1C(=O)N(C1CCC(=O)NC1=O)C2=O (stereo not drawn) [CC-4047, 4-amino-2-(2,6-dioxopiperidin-3-yl)isoindoline-1,3-dione]
increase: CD59 mRNA levels in unstimulated monocytes [1] | CD59 mRNA levels in PBMC cells [2] | mRNA levels of CD59 in several in vitro cellular models [3] | CD59 mRNA levels in α-cd3/cd28 stimulated T cells [4]

Nc1cccc2c1CN(C1CCC(=O)NC1=O)C2=O (stereo not drawn) [lenalidomide, 3-(4-amino-1-oxo-1,3-dihydro-isoindol-2-yl)-piperidine-2,6-dione]
increase: CD59 mRNA levels in unstimulated monocytes [1] | CD59 mRNA levels in PBMC cells [2] | mRNA levels of CD59 in several in vitro cellular models [3] | CD59 mRNA levels in α-cd3/cd28 stimulated T cells [4]

O=C1CCC(N2C(=O)c3cccc(CNC(=O)C4CC4)c3C2=O)C(=O)N1 (stereo not drawn) [N-{[2-(2,6-dioxo(3-piperidyl)-1,3-dioxoisoindolin-4-yl]methyl}cyclopropyl-carboxamide]
increase: mRNA levels of CD59 in several in vitro cellular models [3]

Source: patent publication US9192662B2, “Methods using immunomodulatory compounds for modulating level of CD59” (Celgene Corporation, priority 2008, dated 2015)
